Like-named read-outs stand apart in the source and are kept apart here.
Experiments:
[1] = test system: OATP-1B3 transfected CHO cells; format: cell-based, Chinese hamster
[2] = test system: OATP-1B1 transfected CHO cells
[3] = target: T1, OATP-1B1 (Homo sapiens, UniProt Q9Y6L6); conditions: for Inhibition of cellular accumulation of [3H]ES (in words) / Diminished uptake of [3H]ES: 25 and 50 μM; for Diminished uptake of [3H]ES: p < 0.05
T1 sequence (Q9Y6L6 1-691): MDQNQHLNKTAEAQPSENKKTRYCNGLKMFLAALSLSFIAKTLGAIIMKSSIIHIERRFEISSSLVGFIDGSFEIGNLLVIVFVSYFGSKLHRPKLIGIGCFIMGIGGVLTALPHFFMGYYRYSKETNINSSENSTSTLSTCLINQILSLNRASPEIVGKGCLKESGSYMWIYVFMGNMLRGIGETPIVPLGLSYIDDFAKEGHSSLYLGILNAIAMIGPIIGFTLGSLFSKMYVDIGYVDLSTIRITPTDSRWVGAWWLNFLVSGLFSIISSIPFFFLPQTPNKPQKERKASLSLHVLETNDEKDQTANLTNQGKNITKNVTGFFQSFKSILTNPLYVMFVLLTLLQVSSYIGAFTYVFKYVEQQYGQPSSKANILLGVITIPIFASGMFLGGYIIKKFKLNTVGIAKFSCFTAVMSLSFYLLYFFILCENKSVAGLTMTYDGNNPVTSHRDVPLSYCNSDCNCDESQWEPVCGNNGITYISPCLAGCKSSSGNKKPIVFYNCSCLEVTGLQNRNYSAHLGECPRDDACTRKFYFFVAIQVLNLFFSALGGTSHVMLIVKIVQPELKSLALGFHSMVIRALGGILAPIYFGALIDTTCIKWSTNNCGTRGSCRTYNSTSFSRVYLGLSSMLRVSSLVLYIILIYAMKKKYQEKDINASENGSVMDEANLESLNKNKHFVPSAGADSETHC

[4] = test system: OATP-1B1; conditions: 10 μM, Flp-In T-Rex293 cells expressing OATP-1B1; ref Hu et al. [24]; cited from earlier work
[5] = target: T2, OATP-1B3 (Homo sapiens, UniProt Q9NPD5); experiment: Inhibition of [3H]CCK-8 cellular accumulation in OATP-1B3 transfected CHO cells; format: cell-based; conditions: for Inhibition of cellular accumulation of [3H]CCK-8 (in words): 25 and 50 μM, OATP-1B3 transfected cells; for Inhibition in net uptake rate of [3H]CCK-8 in OATP-1B3 cells (in words): increasing concentrations 0.1-100 μM
T2 sequence (Q9NPD5 1-702): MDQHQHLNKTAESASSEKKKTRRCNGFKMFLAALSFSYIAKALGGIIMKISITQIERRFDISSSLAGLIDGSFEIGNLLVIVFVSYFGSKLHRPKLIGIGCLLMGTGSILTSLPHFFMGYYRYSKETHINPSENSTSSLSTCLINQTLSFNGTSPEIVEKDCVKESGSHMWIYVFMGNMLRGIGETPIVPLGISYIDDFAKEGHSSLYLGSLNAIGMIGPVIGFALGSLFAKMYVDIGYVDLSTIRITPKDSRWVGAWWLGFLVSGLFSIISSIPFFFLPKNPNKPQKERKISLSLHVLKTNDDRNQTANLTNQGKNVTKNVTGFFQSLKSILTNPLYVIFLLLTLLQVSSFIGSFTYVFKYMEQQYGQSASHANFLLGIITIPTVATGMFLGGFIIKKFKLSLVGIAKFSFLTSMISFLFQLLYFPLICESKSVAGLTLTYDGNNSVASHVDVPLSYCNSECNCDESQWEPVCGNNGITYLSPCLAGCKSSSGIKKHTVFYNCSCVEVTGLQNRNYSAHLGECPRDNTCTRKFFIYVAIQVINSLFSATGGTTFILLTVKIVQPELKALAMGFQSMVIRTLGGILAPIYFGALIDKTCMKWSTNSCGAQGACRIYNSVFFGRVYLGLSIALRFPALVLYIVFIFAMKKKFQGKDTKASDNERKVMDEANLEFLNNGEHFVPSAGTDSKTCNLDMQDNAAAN

[6] = coadministration together with CsA; ref [16], [34], [35]; cited from earlier work
[7] = coadministration of pazopanib; ref Tan et al. [41]; cited from earlier work
[8] = 100 μM, 24 h, OATP-1B3 transfected cells, relative to positive control Triton X
[9] = 100 μM, 24 h, OATP-1B1 transfected cells, relative to positive control Triton X

Row | SMILES | Inhibition of cellular accumulation of [3H]CCK-8 (in words) [5] | Inhibition in net uptake rate of [3H]CCK-8 in OATP-1B3 cells (in words) [5] | Cytotoxic effect [1, 8] | Cytotoxic effect [2, 9] | Inhibition of cellular accumulation of [3H]ES (in words) ([3]; OATP-1B1 transfected cells) | Inhibition of OATP-1B1 (in words) [4] | other results
1 | Cc1cn(-c2cc(NC(=O)c3ccc(C)c(Nc4nccc(-c5cccnc5)n4)c3)cc(C(F)(F)F)c2)cn1 [Nilotinib, nilotinib] | did not show any significant effect | no significant inhibition | No cytotoxic effects | No cytotoxic effects | significant inhibition | inhibitory potency | Diminished uptake of [3H]ES ([3]; OATP-1B1 transfected cells): ~90%
2 | CC(C)c1nc(N(C)S(C)(=O)=O)nc(-c2ccc(F)cc2)c1/C=C/[C@@H](O)C[C@@H](O)CC(=O)O [rosuvastatin] | – | – | – | – | – | – | Increased AUC of statin [6]: 7.08 fold
3 | CC(=O)O[C@H]1C(=O)[C@@]2(C)[C@H]([C@H](OC(=O)c3ccccc3)[C@]3(O)C[C@H](OC(=O)[C@H](O)[C@@H](NC(=O)c4ccccc4)c4ccccc4)C(C)=C1C3(C)C)[C@]1(OC(C)=O)CO[C@@H]1C[C@@H]2O [paclitaxel] | – | – | – | – | – | – | Lower paclitaxel clearance [7]: 14%
4 | CO[C@H]1/C=C/O[C@@]2(C)Oc3c(C)c(O)c4c(O)c(c(/C=N/N5CCN(C)CC5)c(O)c4c3C2=O)NC(=O)/C(C)=C\C=C\[C@H](C)[C@H](O)[C@@H](C)[C@@H](O)[C@@H](C)[C@H](OC(C)=O)[C@@H]1C [Rifampicin] | – | – | – | – | – | – | IC50 [3]: 10.5 ± 1.15 µM; Reduced uptake of [3H]ES ([3]; 50 μM, OATP-1B1 transfected cells): 70%; IC50 [5]: 3.67 ± 1.2 µM
5 | CC[C@H](C)C(=O)O[C@H]1C[C@H](O)C=C2C=C[C@H](C)[C@H](CC[C@@H](O)C[C@@H](O)CC(=O)O)[C@H]21 [pravastatin] | – | – | – | – | – | – | Increased AUC of statin [6]: 9.93 fold

More lines, main results first:

Row | Inhibition of cellular accumulation of [3H]CCK-8 (in words) [5] | Inhibition in net uptake rate of [3H]CCK-8 in OATP-1B3 cells (in words) [5] | SMILES | Cytotoxic effect [1, 8] | Cytotoxic effect [2, 9] | Inhibition of cellular accumulation of [3H]ES (in words) ([3]; OATP-1B1 transfected cells) | Inhibition of OATP-1B1 (in words) [4] | other results
6 | did not show any significant effect | no significant inhibition | C#Cc1cccc(Nc2ncnc3cc(OCCOC)c(OCCOC)cc23)c1 [Erlotinib, erlotinib] | No cytotoxic effects | No cytotoxic effects | did not show any significant inhibitory activity | inhibitory activity | –
7 | significant inhibition | – | COc1cc2c(Nc3ccc(Br)cc3F)ncnc2cc1OCC1CCN(C)CC1 [Vandetanib, vandetanib] | – | – | did not show any significant inhibitory activity | inhibitory activity | Cytotoxic effect [1]: No cytotoxic effects; Cytotoxic effect [2]: No cytotoxic effects; IC50 [5]: 18.1 ± 1.21 µM
8 | did not show any significant effect | no significant inhibition | Cc1ccc(Nc2nccc(N(C)c3ccc4c(C)n(C)nc4c3)n2)cc1S(N)(=O)=O [Pazopanib] | – | – | significant inhibition | inhibitory potency | Cytotoxic effect [1]: No cytotoxic effects; Cytotoxic effect [2]: No cytotoxic effects; IC50 [3]: 3.89 ± 1.21 µM; Diminished uptake of [3H]ES ([3]; OATP-1B1 transfected cells): ~90%
9 | did not show any significant effect | no significant inhibition | C=CC(=O)Nc1cc2c(Nc3ccc(F)c(Cl)c3)ncnc2cc1OCCCN1CCOCC1 [Canertinib, canertinib] | No cytotoxic effects | No cytotoxic effects | did not show any significant inhibitory activity | – | –

From publication PMC4407688 (Drug metabolism and drug interactions, 2014)
